Experimental data published in patent US9540343B2 (Gilead Sciences, Inc., priority 2011, dated 2017).

Tests used:
in vitro = conditions: human, uninfected MT-4 cells, CC50 (nM), same protocol as Test A, CellTiter-Glo
How it was run: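 Cytoprotection read-out: CellTiter-Glo chemiluminescence after 5 days at 37 °C of HIV-IIIb-infected MT-4 cells (m.o.i. 0.003) with compound in 10-point 3-fold dilutions, quadruplicate, 10% FBS. Cytotoxicity (CC50) measured identically without virus.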

HIV-IIIb = assay: Test A: Antiviral assay in MT4 cells; assay type: cell-based, HIV-1; conditions: Human immunodeficiency virus 1, IIIB, MT4, 120 h, read-out: % inhibition at 2 μM, percent inhibition of virus-induced cell killing, from dose response curve at 2 uM drug; MT-4 cells infected with HIV-IIIb, 5 days, CellTiter-Glo

Row | Compound | CC50 at 5 days (in vitro) [nM] | inhibition at 2 µM (HIV-IIIb) [%]
1 | Cc1c(C2CC2)c(C(F)(F)F)nn1CC(=O)N[C@@H](Cc1cc(F)cc(F)c1)c1ncccc1-c1ccc(F)c(C(N)=O)c1 [Example 291, (S)-5-(2-(1-(2-(4-cyclopropyl-5-methyl-3-(trifluoromethyl)-1H-pyrazol-1-yl)acetamido)-2-(3,5-difluorophenyl)ethyl)pyridin-3-yl)-2-fluorobenzamide] | 16500 | 86
2 | NCc1ccc2c(CC(=O)N[C@@H](Cc3cc(F)cc(F)c3)c3ncccc3-c3ccc(Cl)cc3)c[nH]c2c1 [Example 549, (S)-2-(6-(aminomethyl)-1H-indol-3-yl)-N-(1-(3-(4-chlorophenyl)pyridin-2-yl)-2-(3,5-difluorophenyl)ethyl)acetamide] | 10200 | 38
3 | CN1Cc2c(C(F)(F)F)nn(CC(=O)N[C@@H](Cc3cc(F)cc(F)c3)c3ncccc3-c3ccc(F)c(C(N)=O)c3)c2C1 [Example 235, (S)-5-(2-(2-(3,5-difluorophenyl)-1-(2-(5-methyl-3-(trifluoromethyl)-5,6-dihydropyrrolo[3,4-c]pyrazol-1(4H)-yl)acetamido)ethyl)pyridin-3-yl)-2-fluorobenzamide] | > 53200 | 12
4 | NC(=O)c1cc(-c2cccnc2[C@H](Cc2cc(F)cc(F)c2)NC(=O)[C@@H]2C[C@@H](OCc3ccccc3)CN2)ccc1F [Example 157, (2S,4R)-4-(benzyloxy)-N—((S)-1-(3-(3-carbamoyl-4-fluorophenyl)pyridin-2-yl)-2-(3,5-difluorophenyl)ethyl)pyrrolidine-2-carboxamide] | 38300 | 10
5 | NS(=O)(=O)c1cccc(-c2cncnc2[C@H](Cc2cc(F)cc(F)c2)NC(=O)Cc2c[nH]c3ccc(O)cc23)c1 [Example 295B, (S)—N-(2-(3,5-difluorophenyl)-1-(5-(3-sulfamoylphenyl)pyrimidin-4-yl)ethyl)-2-(5-hydroxy-1H-indol-3-yl)acetamide] | > 53200 | 99
6 | CS(=O)(=O)c1ccc(-c2cccnc2[C@H](Cc2cc(F)cc(F)c2)NC(=O)Cn2nc(C(F)(F)F)c3c2CCCC3)cc1 [Example 425, (S)—N-(2-(3,5-difluorophenyl)-1-(3-(4-(methylsulfonyl)phenyl)pyridin-2-yl)ethyl)-2-(3-(trifluoromethyl)-4,5,6,7-tetrahydro-1H-indazol-1-yl)acetamide] | 15600 | 85
7 | NC(=O)c1cc(-c2cccnc2[C@H](Cc2cc(F)cc(F)c2)NC(=O)Cn2nc(C=O)c3c2C2CC(C3)C2)ccc1F [Example 96, (S)-5-(2-(2-(3,5-difluorophenyl)-1-(2-(4,5,6,7-tetrahydro-3-formyl-5,7-(methano)indazol-1-yl)acetamido)ethyl)pyridin-3-yl)-2-fluorobenzamide] | 9620 | 104
8 | CC(C)(C)NC(=O)c1cc(-c2cccnc2[C@H](Cc2cc(F)cc(F)c2)NC(=O)Cc2c[nH]c3ccc(F)cc23)ccc1F [Example 417, (S)—N-tert-butyl-5-(2-(2-(3,5-difluorophenyl)-1-(2-(5-fluoro-1H-indol-3-yl)acetamido)ethyl)pyridin-3-yl)-2-fluorobenzamide] | 12800 | 8
9 | O=C(Cc1c[nH]c2ccc(F)cc12)N[C@@H](Cc1cc(F)cc(F)c1)c1ncccc1-c1ccc(OC(F)(F)F)cc1 [Example 431, (S)—N-(2-(3,5-difluorophenyl)-1-(3-(4-(trifluoromethoxy)phenyl)pyridin-2-yl)ethyl)-2-(5-fluoro-1H-indol-3-yl)acetamide] | 6390 | 7
10 | NC(=O)c1cc(-c2cccnc2[C@H](Cc2cc(F)cc(F)c2)NC(=O)Cc2c[nH]c3ccc(F)cc23)ccc1F [Example 55F, (S)-5-(2-(2-(3,5-difluorophenyl)-1-(2-(5-fluoro-1H-indol-3-yl)acetamido)ethyl)pyridin-3-yl)-2-fluorobenzamide] | 21600 | 101
11 | Cc1nc2n(CC(=O)N[C@@H](Cc3cc(F)cc(F)c3)c3ncccc3-c3ccc(F)c(C(N)=O)c3)c3ccccc3n2n1 [Example 600, (S)-5-(2-(2-(3,5-difluorophenyl)-1-(2-(2-methyl-4H-benzo[4,5]imidazo[1,2-b][1,2,4]triazol-4-yl)acetamido)ethyl)pyridin-3-yl)-2-fluorobenzamide] | > 53200 | 9
12 | O=C(Cn1nc(C(F)F)cc1C(F)F)N[C@@H](Cc1cc(F)cc(F)c1)c1ccccn1 [Example 528, (S)-2-(3,5-bis(difluoromethyl)-1H-pyrazol-1-yl)-N-(2-(3,5-difluorophenyl)-1-(pyridin-2-yl)ethyl)acetamide] | > 53200 | 0
13 | Cc1ccc(-c2cccnc2[C@H](Cc2cc(F)cc(F)c2)NC(=O)Cc2c[nH]c3ccc(F)cc23)cc1 [Example 69, (S)—N-(2-(3,5-difluorophenyl)-1-(3-p-tolylpyridin-2-yl)ethyl)-2-(5-fluoro-1H-indol-3-yl)acetamide] | 6690 | 84
14 | NC(=O)c1cc(-c2cccnc2[C@H](Cc2cc(F)cc(F)c2)NC(=O)Cn2nc(C(F)F)cc2C(F)F)ccc1F [Example 505, (S)-5-(2-(1-(2-(3,5-bis(difluoromethyl)-1H-pyrazol-1-yl)acetamido)-2-(3,5-difluorophenyl)ethyl)pyridin-3-yl)-2-fluorobenzamide] | > 47400 | 28
15 | NC(=O)c1cc(-c2cccnc2[C@H](Cc2cc(F)cc(F)c2)NC(=O)Cn2cc(C(F)(F)F)cn2)ccc1F [Example 570, (S)-5-(2-(2-(3,5-difluorophenyl)-1-(2-(4-(trifluoromethyl)-1H-pyrazol-1-yl)acetamido)ethyl)pyridin-3-yl)-2-fluorobenzamide] | > 53200 | 5
16 | NC(=O)c1cc(-c2cccnc2[C@H](Cc2cc(F)cc(F)c2)NC(=O)Cc2c[nH]c3ccc(Br)cc23)ccc1F [Example 445, (S)-5-(2-(1-(2-(5-bromo-1H-indol-3-yl)acetamido)-2-(3,5-difluorophenyl)ethyl)pyridin-3-yl)-2-fluorobenzamide] | 10700 | 114
17 | CC(C)(C)OC(=O)N1C(=O)CC[C@H]1C(=O)N[C@@H](Cc1cc(F)cc(F)c1)c1ncccc1-c1ccc(F)c(C(N)=O)c1 [Example 140, (S)-tert-butyl 2-((S)-1-(3-(3-carbamoyl-4-fluorophenyl)pyridin-2-yl)-2-(3,5-difluorophenyl)ethylcarbamoyl)-5-oxopyrrolidine-1-carboxylate] | > 53000 | 0
18 | O=C(Cc1c[nH]c2ccc(F)cc12)N[C@@H](Cc1cc(F)cc(F)c1)c1ncccc1-c1cccc(C(=O)NC2CC2)c1 [Example 66, (S)—N-cyclopropyl-3-(2-(2-(3,5-difluorophenyl)-1-(2-(5-fluoro-1H-indol-3-yl)acetamido)ethyl)pyridin-3-yl)benzamide] | 16800 | -2
19 | CC(C)C(C(=O)N[C@@H](Cc1cc(F)cc(F)c1)c1ncccc1-c1ccc(F)c(C(N)=O)c1)n1ccc(C(F)(F)F)n1 (single isomer, unassigned) [Example 479] | 26400 | 2
